This note sets out measurements from patent EP0163240A2, “Dihydroimidazo[1,2-a]pyrimidine derivatives, methods of preparing said compounds and pharmaceutical compositions constaining said compounds” (priority 1984, dated 1985).

Structures can show the parent of a compound that is named as a salt. Where two headings read alike, the source gives them in different places.

One data set has as its system Trachea of guinea pig. Briefly: Anticholinergic activity (ACh-contracted tracheal strip chain preparation). The conditions noted are these: for IC50: Cavia porcellus, read-out: 50% inhibitory concentration (IC50) on ACh-induced contraction; for relaxant effect on ACh-contracted preparation: 10^-7-10^-5M. Here is the method: (§1) Each of 30 mg/kg of test compounds A and Q was orally administered to five male spontaneously hypertensive rats and the blood pressure was measured by the tail cuff method. The blood pressure lowering value after 1 hour administration of test compound A was 48 mmHg and that value after 5 hours administration of test compound Q was 64 mmHg. Pharmacological experiment 6: Anticholinergic activity
Trachea of guinea pig, weighing 380-550 g, was isolated and prepared its strip chain preparation. The preparation was mounted in organ bath filled with Krebs-Henseleit solution gassed with 95% 02 and 5% CO2. Length of the preparation was measured by isometric transducer (MEC, ME-4012). The preparation was contracted by 10^-6 M of acetylcholine (ACh) and then, test compounds were added cumulatively into the bath to observe relaxant effect.
(§2) Pharmacological experiment 7: Toxicity

Another data set has as its system vertebral blood flow. Briefly: Effect on vertebral blood flow. The conditions noted are these: for ED100: dose required to obtain 100% of the increase of blood flow by 100 µg of papaverine hydrochloride, injected in the vertebral artery, anesthetized dogs; for T 1/2: half-life measured as the duration of effects on vertebral blood flow. The format is in vivo, Adult mongrel dogs. As for the experimental part: Pharmacological experiment 3: Effect on vertebral blood flow Adult mongrel dogs were anesthetized with sodium pentobarbital (25 mg/kg, i.v.). The right vertebral artery was perfused and the blood flow was measured. Test compound was injected in the vertebral artery. […] Half-life (T 1/2, minute) was measured as the duration of effects.

In data set [1] the test system is spontaneously hypertensive rats. The data set is described as follows: Effect on hypertension (tail cuff method). The class given is in vivo, male spontaneously hypertensive rats. The conditions noted are these: 30 mg/kg orally. As for the experimental part:
Pharmacological experiment 5: Effect on hypertension
as §1

A further data set deals with ddY strain mice. The format is in vivo.
Text: as §2
Test compounds A, B, C, E and S were orally administered to five ddY strain mice.

In a further data set the test system is coronary blood flow. The data set is described as follows: Effect on coronary blood flow. The format is in vivo, Adult mongrel dogs. The conditions noted are these: for ED50: dose required to increase the coronary blood flow by a half of the effects of nifedipine, injected into the coronary artery, anesthetized dogs; for T 1/2: half-life measured as the duration of effects on coronary blood flow. As for the experimental part:
Pharmacological experiment 2: Effect on coronary blood flow Adult mongrel dogs were anesthetized with sodium pentobarbital (30 mg/kg, i.v.). According to the method of Yago et al described in Folia Pharmacol. Japon, vol. 57, 380 (1961), the left coronary artery was perfused and its blood flow was measured. […] The half-life (T 1/2, minute) was measured as the duration of effects.

The test system of the next data set is liver mitochondria. Briefly: Effect on lipid peroxidation (malondialdehyde formation in liver mitochondria, thiobarbituric acid method). The format is biochemical, Male Sprague-Dawley rats. The settings on record: 50% inhibitory concentration on the formation of malondialdehyde; ascorbic acid, ferrous sulfate; 25°C for 30 minutes. As for the experimental part: Pharmacological experiment 4: Effect on lipid peroxidation
Male Sprague-Dawley rats weighing 300-350 g were used. According to the method of Shimada et al described in Biochim. Biophys. Acta, vol. 572, 531 (1979), the liver mitochondria were isolated and ascorbic acid, ferrous sulfate, potassium chloride and Tris-HC1 buffer were added. To the solution was added test compound dissolved in dimethyl sulfoxide, and the mixture was incubated at 25°C for 30 minutes. The amount of malondialdehyde was determined by the thiobarbituric acid method and the 50% inhibitory concentration (IC50, µmol) of test compound on the formation of malondialdehyde was measured.

Setting [2] is: preparation contracted by 10^-6 M of acetylcholine (ACh), cumulative addition.
Where [3] appears, read: oral dose of 1000 mg/kg, five mice.

`CN1[C@@H]2CC[C@H]1C[C@@H](OC(=O)C(CO)c1ccccc1)C2` (stereo partly shown) [atropine, reference compound]: the IC50 with Trachea of guinea pig was determined as 0.00074 µM.

Turning to `CCN(CC)Cc1cnc2n1C(c1cccc([N+](=O)[O-])c1)C(C(=O)OC(CN1CCCCC1)c1ccccc1)=C(C)N2` (single isomer, unassigned) [Compound Q, 2-Piperidino-1-phenylethyl 3-diethylaminomethyl-7-methyl-5-(3-nitrophenyl)-5,8-dihydroimidazo [1,2-a]pyrimidine-6-carboxylate (β-form)], in the data set on vertebral blood flow, the “ED100” value was found to be 18 µg and the “T 1/2” value was 4.0 min. The “blood pressure lowering value” in data set [1] (after 5 hours) is 64 mmHg.

With `CCOC(=O)C1=C(C)Nc2ncc(CN(CC)CC)n2C1c1cccc([N+](=O)[O-])c1` (stereo not shown) [Compound B, Ethyl 3-diethylaminomethyl-7-methyl-5-(3-nitrophenyl)-5,8-dihydroimidazo[l,2-a]pyrimidine-6-carboxylate hydrochloride], the survival entry with ddY strain mice (mouse, in vivo, po, 1000 mg/kg) was “All mice were survived”. Also, in the data set on coronary blood flow, the “ED50” value was found to be 3 µg and the “T 1/2” value came out at 1.5 min. For the same molecule, in the data set with Trachea of guinea pig, the “relaxant effect on ACh-contracted preparation” value is recorded as “relaxed ACh-contracted preparation in a concentration-dependent manner”. In addition, in the data set on Trachea of guinea pig (setting [2]), the IC50 stood at 4 µM. Besides, in the data set with vertebral blood flow, the “ED100” value is 10 µg and the “T 1/2” value amounted to 0.8 min. In the data set with liver mitochondria, this molecule had an IC50 of 20 µM.

With `COC(=O)C1=C(C)Nc2ncc(CNc3ccccc3C(F)(F)F)n2C1c1cccc([N+](=O)[O-])c1` (stereo not shown) [Compound S, Methyl 7-methyl-5-(3-nitrophenyl)-3-(2-trifluoromethylphenyl)aminomethyl-5,8-dihydroimidazo[1,2-a]pyrimidine-6-carboxylate], the survival entry in the data set with ddY strain mice (setting [3]) is on record as “All mice were survived”.

Turning to `CCOCc1cnc2n1C(c1cccc([N+](=O)[O-])c1)C(C(=O)OCC)=C(C)N2` (stereo not shown) [Compound G, Ethyl 3-ethoxymethyl-7-methyl-5-(3-nitrophenyl)-5,8-dihydroimidazo[1,2-a]pyrimidine-6-carboxylate], in the data set on coronary blood flow, the “ED50” value was 7 µg and the “T 1/2” value was 1.0 min. This molecule also had an IC50 with liver mitochondria of 10 µM.

With `CCN(CC)Cc1cnc2n1C(c1cccc([N+](=O)[O-])c1)C(C(=O)OC)=C(C)N2` (stereo not shown) [Compound A, Methyl 3-diethylaminomethyl-7-methyl-5-(3-nitrophenyl)-5,8-dihydroimidazo[l,2-a]pyrimidine-6-carboxylate hydrochloride], the survival result in the data set with ddY strain mice (mouse, in vivo, po, 1000 mg/kg) was “All mice were survived”. For the same molecule, in the data set with coronary blood flow, the “ED50” value was 2 µg and the “T 1/2” value is 1.0 min. Besides, the “relaxant effect on ACh-contracted preparation” value with Trachea of guinea pig is listed as “relaxed ACh-contracted preparation in a concentration-dependent manner”. The IC50 in the data set on Trachea of guinea pig (setting [2]) was 1.6 µM. Moreover, in the data set on vertebral blood flow, the “ED100” value was 2 µg and the “T 1/2” value came out at 0.9 min. Further, the “blood pressure lowering value” in data set [1] (after 1 hour) is recorded as 48 mmHg. The same molecule gave an IC50 in the data set on liver mitochondria of 50 µM.

With `COC(=O)C1=C(C)Nc2ncc(CN3CCCC3)n2C1c1cccc([N+](=O)[O-])c1` (stereo not shown) [Compound P, Methyl 7-methyl-5-(3-nitrophenyl)-3-(1-pyrrolidinylmethyl)-5,8-dihydroimidazo[1,2-a] pyrimidine-6-carboxylate dihydrochloride], in the data set on Trachea of guinea pig (setting [2]), the IC50 is 2.3 µM. Further, in the data set on vertebral blood flow, the “ED100” value came out at 6 µg and the “T 1/2” value amounted to 0.6 min.

As to `CCN(CC)Cc1cnc2n1C(c1ccccc1C(F)(F)F)C(C(=O)OC)=C(C)N2` (stereo not shown) [Compound E, Methyl 3-diethylaminomethyl-7-methyl-5-(2-trifluoromethylphenyl)-5,8-dihydroimidazo[1,2-a] pyrimidine-6-carboxylate], in the data set with ddY strain mice (setting [3]), the survival entry is given as “All mice were survived”. For the same molecule, in the data set with coronary blood flow, the “ED50” value came out at 5 µg and the “T 1/2” value stood at 1.0 min. The IC50 in the data set with liver mitochondria was found to be 15 µM.

As for `CCOC(=O)C1=C(C)Nc2ncc(CN(C)Cc3ccccc3)n2C1c1cccc([N+](=O)[O-])c1.Cl.Cl.O` (stereo not shown) [Compound C, Ethyl 3-(N-benzyl-N-methylamino)methyl-7-methyl-5-(3-nitrophenyl)-5,8-dihydroimidazo[1,2-a] pyrimidine-6-carboxylate dihydrochloride monohydrate], the survival result with ddY strain mice (mouse, in vivo, po, 1000 mg/kg) is given as “All mice were survived”. In addition, in the data set on coronary blood flow, the “ED50” value turned out to be 10 µg and the “T 1/2” value came to 1.5 min. Further, in the data set on vertebral blood flow, the “ED100” value was 5 µg and the “T 1/2” value was 1.5 min.
